Tests used:
[1] = tested on: CHEAL (Lambsquarters, Common); assay: Postemergence herbicidal evaluation; assay type: in vivo, Chenopodium album
How it was run: (§1)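 Herbicidal effect was judged by eye on a 0–9 scale covering stand, vigor, deformity, size and chlorosis, compared with controls, four to five weeks after seedlings about two weeks old were sprayed (40 psi, ~0.0156–0.500 kg/ha).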

[2] = tested on: CASOB (Sicklepod); assay: Postemergence herbicidal evaluation; assay type: in vivo, Cassia obtusifolia
How it was run: as §1

[3] = tested on: GALAP (Galium); assay: Postemergence herbicidal evaluation; assay type: in vivo, Galium aparine
How it was run: as §1

[4] = tested on: MOOVA (Monochoria); assay: Preemergence weed control under flooded paddy conditions; assay type: in vivo, Monochoria vaginalis; conditions: rated 3-4 weeks after treatment
How it was run: (§2)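 Seeds or propagules sown in silt loam kept flooded 1.5-3 cm; compounds in 50/50 acetone/water pipetted into flood water at about 0.0313 to 0.500 kg/ha. Greenhouse; visual 0-9 rating versus untreated control 3-4 weeks after treatment.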

[5] = tested on: ORYSAT (Rice, Tebonnet); assay: Postemergence herbicidal evaluation; assay type: in vivo, Oryza sativa, (L.) Tebonnet
How it was run: as §1

[6] = tested on: SAGPY (Arrowhead (Pygmaea)); assay: Postemergence weed control under flooded paddy conditions; assay type: in vivo, Sagittaria pygmaea; conditions: postemergence weeds, 3-4 weeks after treatment
How it was run: (§3)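 Weeds 3 to 5 cm tall and rice seedlings at the 1.5 to 2.5 leaf stage were flooded, with water held 1.5 to 3 cm above the soil. Compounds in 50/50 v/v aqueous/acetone went into the flood water at about 0.0313 to 0.500 kg/ha. Visual 0-9 ratings versus control were made 3 to 4 weeks later.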

[7] = tested on: GLXMAW (Soybean, Williams); assay: Preemergence herbicidal evaluation; assay type: in vivo, Glycine max, (L.) Merr. cv Williams; conditions: rated 4-5 weeks after treatment
How it was run: (§4)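 Greenhouse preemergence test: seed-soil mix sown on ~1 inch soil; aqueous acetone spray at equivalent of ~0.0156–0.500 kg/ha; greenhouse-held and watered; scored 0–9 visually at 4–5 weeks.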

[8] = tested on: CYPSE (Flatsedge); assay: Preemergence weed control under flooded paddy conditions; assay type: in vivo, Cyperus serotinus; conditions: rated 3-4 weeks after treatment
How it was run: as §2

[9] = tested on: AMBEL (Ragweed, Common); assay: Preemergence herbicidal evaluation; assay type: in vivo, Ambrosia artemisifolia; conditions: rated 4-5 weeks after treatment
How it was run: as §4

[10] = tested on: CYPSE (Flatsedge); assay: Postemergence weed control under flooded paddy conditions; assay type: in vivo, Cyperus serotinus; conditions: postemergence weeds, 3-4 weeks after treatment
How it was run: as §3

[11] = tested on: ORYSAT (Rice, Tebonnet); assay: Preemergence herbicidal evaluation; assay type: in vivo, Oryza sativa, (L.) Tebonnet; conditions: rated 4-5 weeks after treatment
How it was run: as §4

[12] = tested on: SETVI (Foxtail, Green); assay: Preemergence herbicidal evaluation; assay type: in vivo, Setaria viridis; conditions: rated 4-5 weeks after treatment
How it was run: as §4

[13] = tested on: CYPIR (Rice Flatsedge); assay: Postemergence weed control under flooded paddy conditions; assay type: in vivo, Cyperus iria; conditions: postemergence weeds, 3-4 weeks after treatment
How it was run: as §3

[14] = tested on: ZEAMX (Corn, Field); assay: Postemergence herbicidal evaluation; assay type: in vivo, Zea mays
How it was run: as §1

With `Cn1c(C(F)(F)F)cc(=O)n(-c2cc(N=C3NC(=O)CS3)c(Cl)cc2F)c1=O` [Compound 39, 3-{4-Chloro-2-fluoro-5-[(4-oxo-2-thiazolidinylidene)amino]phenyl}-1-methyl-6-(trifluoromethyl)-2,4(1H,3H)-pyrimidinedione] the “Postemergence herbicidal rating CHEAL” value ([1]; Rate 0.0158 kg/ha) was 1.0, the “Postemergence herbicidal rating CHEAL” value ([1]; Rate 0.0315 kg/ha) was 1.0 and the “Postemergence herbicidal rating CHEAL” value ([1]; Rate 0.0630 kg/ha) was 1.0. For the same compound, the “Postemergence herbicidal rating CASOB” value ([2]; Rate 0.0158 kg/ha) was 0.0, the “Postemergence herbicidal rating CASOB” value ([2]; Rate 0.0315 kg/ha) was 0.0 and the “Postemergence herbicidal rating CASOB” value ([2]; Rate 0.0630 kg/ha) was 0.0. For the same compound, the “Postemergence herbicidal rating GALAP” value ([3]; Rate 0.0158 kg/ha) was 0.0, the “Postemergence herbicidal rating GALAP” value ([3]; Rate 0.0315 kg/ha) was 0.0 and the “Postemergence herbicidal rating GALAP” value ([3]; Rate 0.0630 kg/ha) was 0.0. For the same compound, the “Herbicidal rating MOOVA” value ([4]; 0.0313 kg/ha) was 9.0, the “Herbicidal rating MOOVA” value ([4]; 0.0625 kg/ha) was 9.0 and the “Herbicidal rating MOOVA” value ([4]; 0.1250 kg/ha) was 9.0. For the same compound, the “Herbicidal rating MOOVA” value ([4]; 0.2500 kg/ha) was 9.0, the “Postemergence herbicidal rating ORYSAT” value ([5]; Rate 0.0158 kg/ha) was 1.5 and the “Postemergence herbicidal rating ORYSAT” value ([5]; Rate 0.0315 kg/ha) was 1.5. The “Postemergence herbicidal rating ORYSAT” value ([5]; Rate 0.0630 kg/ha) was 2.0, the “Herbicidal rating SAGPY” value ([6]; rate 0.0313 kg/ha) was 0.0 and the “Herbicidal rating SAGPY” value ([6]; rate 0.0625 kg/ha) was 0.0. For the same compound, the “Herbicidal rating SAGPY” value ([6]; rate 0.1250 kg/ha) was 0.0, the “Herbicidal rating SAGPY” value ([6]; rate 0.2500 kg/ha) was 4.0 and the “Preemergence herbicidal rating GLXMAW” value ([7]; rate 0.0156 kg/ha) was 0.0. The “Preemergence herbicidal rating GLXMAW” value ([7]; rate 0.0313 kg/ha) was 0.0, the “Preemergence herbicidal rating GLXMAW” value ([7]; rate 0.0625 kg/ha) was 0.0 and the “Preemergence herbicidal rating GLXMAW” value ([7]; rate 0.1250 kg/ha) was 5.0. For the same compound, the “Preemergence herbicidal rating GLXMAW” value ([7]; rate 0.2500 kg/ha) was 7.0, the “Herbicidal rating CYPSE” value ([8]; 0.0313 kg/ha) was 0.0 and the “Herbicidal rating CYPSE” value ([8]; 0.0625 kg/ha) was 0.0. For the same compound, the “Herbicidal rating CYPSE” value ([8]; 0.1250 kg/ha) was 0.0, the “Herbicidal rating CYPSE” value ([8]; 0.2500 kg/ha) was 0.0 and the “Preemergence herbicidal rating AMBEL” value ([9]; rate 0.0156 kg/ha) was 0.0. For the same compound, the “Preemergence herbicidal rating AMBEL” value ([9]; rate 0.0313 kg/ha) was 0.0, the “Preemergence herbicidal rating AMBEL” value ([9]; rate 0.0625 kg/ha) was 0.0 and the “Preemergence herbicidal rating AMBEL” value ([9]; rate 0.1250 kg/ha) was 6.0. For the same compound, the “Preemergence herbicidal rating AMBEL” value ([9]; rate 0.2500 kg/ha) was 7.0, the “Herbicidal rating CYPSE” value ([10]; rate 0.0313 kg/ha) was 0.0 and the “Herbicidal rating CYPSE” value ([10]; rate 0.0625 kg/ha) was 0.0. The “Herbicidal rating CYPSE” value ([10]; rate 0.1250 kg/ha) was 0.0, the “Herbicidal rating CYPSE” value ([10]; rate 0.2500 kg/ha) was 0.0 and the “Preemergence herbicidal rating ORYSAT” value ([11]; rate 0.0156 kg/ha) was 0.0. For the same compound, the “Preemergence herbicidal rating ORYSAT” value ([11]; rate 0.0313 kg/ha) was 0.0, the “Preemergence herbicidal rating ORYSAT” value ([11]; rate 0.0625 kg/ha) was 0.0 and the “Preemergence herbicidal rating ORYSAT” value ([11]; rate 0.1250 kg/ha) was 1.0. For the same compound, the “Preemergence herbicidal rating ORYSAT” value ([11]; rate 0.2500 kg/ha) was 2.0, the “Preemergence herbicidal rating SETVI” value ([12]; rate 0.0156 kg/ha) was 0.0 and the “Preemergence herbicidal rating SETVI” value ([12]; rate 0.0313 kg/ha) was 0.0. The “Preemergence herbicidal rating SETVI” value ([12]; rate 0.0625 kg/ha) was 0.0, the “Preemergence herbicidal rating SETVI” value ([12]; rate 0.1250 kg/ha) was 0.0 and the “Preemergence herbicidal rating SETVI” value ([12]; rate 0.2500 kg/ha) was 2.0. The “Herbicidal rating CYPIR” value ([13]; rate 0.0313 kg/ha) was 0.0, the “Herbicidal rating CYPIR” value ([13]; rate 0.0625 kg/ha) was 0.0 and the “Herbicidal rating CYPIR” value ([13]; rate 0.1250 kg/ha) was 0.0. For the same compound, the “Herbicidal rating CYPIR” value ([13]; rate 0.2500 kg/ha) was 0.0, the “Postemergence herbicidal rating ZEAMX” value ([14]; Rate 0.0158 kg/ha) was 3.0 and the “Postemergence herbicidal rating ZEAMX” value ([14]; Rate 0.0315 kg/ha) was 3.0. For the same compound, the “Postemergence herbicidal rating ZEAMX” value ([14]; Rate 0.0630 kg/ha) was 3.0.
